ChEMBL document CHEMBL5723584 (2023)
Calls of active or inactive are those of the source. The calls are words filed in the database; no cut-off is given here.

What was measured:
[1] = target: Citron Rho-interacting kinase (Homo sapiens, UniProt O14578); experiment: NanoLuc NanoBRET (CIT); conditions: read-out: Kd
[2] = target: 5'-AMP-activated protein kinase catalytic subunit alpha-1 (Homo sapiens) (UniProt Q13131); experiment: activity of AMPKalpha1(h) at 1.0 µM in the Eurofins Kinase panel; conditions: Compound concentration 1.0 uM
[3] = target: Tyrosine-protein kinase receptor UFO (Homo sapiens) (UniProt P30530); experiment: activity of Axl(h) at 1.0 µM in the Eurofins Kinase panel; conditions: Compound concentration 1.0 uM
[4] = target: Serine/threonine-protein kinase BRSK2 (Homo sapiens) (UniProt Q8IWQ3); experiment: activity of BrSK2(h) at 1.0 µM in the Eurofins Kinase panel; conditions: Compound concentration 1.0 uM
[5] = target: Cyclin-dependent kinase 1/cyclin B (Homo sapiens) (UniProt P06493+P14635+Q8WWL7+O95067); experiment: activity of CDK1/cyclinB(h) at 1.0 µM in the Eurofins Kinase panel; assay type: protein-complex assay; conditions: Compound concentration 1.0 uM
[6] = target: CDK4/Cyclin D3 (Homo sapiens) (UniProt P11802+P30281); experiment: activity of CDK4/cyclinD3(h) at 1.0 µM in the Eurofins Kinase panel; assay type: protein-complex assay; conditions: Compound concentration 1.0 uM
[7] = target: CDK7/Cyclin H/MNAT1 (Homo sapiens) (UniProt P51946+P50613+P51948); experiment: activity of CDK7/cyclinH/MAT1(h) at 1.0 µM in the Eurofins Kinase panel; assay type: protein-complex assay; conditions: Compound concentration 1.0 uM
[8] = target: Casein kinase 2 (Homo sapiens) (UniProt P67870+P68400+P19784+Q8NEV1); experiment: activity of CK2(h) at 1.0 µM in the Eurofins Kinase panel; assay type: protein assay; conditions: Compound concentration 1.0 uM
[9] = target: Dual specificity protein kinase CLK3 (Homo sapiens) (UniProt P49761); experiment: activity of CLK3(h) at 1.0 µM in the Eurofins Kinase panel; conditions: Compound concentration 1.0 uM
[10] = target: Tyrosine-protein kinase CSK (Homo sapiens) (UniProt P41240); experiment: activity of CSK(h) at 1.0 µM in the Eurofins Kinase panel; conditions: Compound concentration 1.0 uM
[11] = target: Proto-oncogene tyrosine-protein kinase Src (Homo sapiens) (UniProt P12931); experiment: activity of cSRC(h) at 1.0 µM in the Eurofins Kinase panel; conditions: Compound concentration 1.0 uM
[12] = target: Serine/threonine-protein kinase 17A (Homo sapiens) (UniProt Q9UEE5); experiment: activity of DRAK1(h) at 1.0 µM in the Eurofins Kinase panel; conditions: Compound concentration 1.0 uM
[13] = target: Glycogen synthase kinase-3 beta (Homo sapiens) (UniProt P49841); experiment: activity of GSK3beta(h) at 1.0 µM in the Eurofins Kinase panel; conditions: Compound concentration 1.0 uM
[14] = target: Tyrosine-protein kinase HCK (Homo sapiens) (UniProt P08631); experiment: activity of Hck(h) activated at 1.0 µM in the Eurofins Kinase panel; conditions: Compound concentration 1.0 uM
[15] = target: Interleukin-1 receptor-associated kinase 4 (Homo sapiens) (UniProt Q9NWZ3); experiment: activity of IRAK4(h) at 1.0 µM in the Eurofins Kinase panel; conditions: Compound concentration 1.0 uM
[16] = target: Vascular endothelial growth factor receptor 2 (Homo sapiens) (UniProt P35968); experiment: activity of KDR(h) at 1.0 µM in the Eurofins Kinase panel; conditions: Compound concentration 1.0 uM
[17] = target: Mitogen-activated protein kinase kinase kinase kinase 5 (Homo sapiens) (UniProt Q9Y4K4); experiment: activity of MAP4K5(h) at 1.0 µM in the Eurofins Kinase panel; conditions: Compound concentration 1.0 uM
[18] = target: Serine/threonine-protein kinase 4 (Homo sapiens) (UniProt Q13043); experiment: activity of MST1(h) at 1.0 µM in the Eurofins Kinase panel; conditions: Compound concentration 1.0 uM
[19] = target: Serine/threonine-protein kinase 26 (Homo sapiens) (UniProt Q9P289); experiment: activity of MST4(h) at 1.0 µM in the Eurofins Kinase panel; conditions: Compound concentration 1.0 uM
[20] = target: Serine/threonine-protein kinase 38 (Homo sapiens) (UniProt Q15208); experiment: activity of NDR1(h) at 1.0 µM in the Eurofins Kinase panel; conditions: Compound concentration 1.0 uM
[21] = target: Serine/threonine-protein kinase PAK 2 (Homo sapiens) (UniProt Q13177); experiment: activity of PAK2(h) at 1.0 µM in the Eurofins Kinase panel; conditions: Compound concentration 1.0 uM
[22] = target: Platelet-derived growth factor receptor beta (Homo sapiens) (UniProt P09619); experiment: activity of PDGFRbeta(h) at 1.0 µM in the Eurofins Kinase panel; conditions: Compound concentration 1.0 uM
[23] = target: cAMP-dependent protein kinase catalytic subunit beta (Homo sapiens) (UniProt P22694); experiment: activity of PKACbeta(h) at 1.0 µM in the Eurofins Kinase panel; conditions: Compound concentration 1.0 uM
[24] = target: Protein kinase C eta type (Homo sapiens) (UniProt P24723); experiment: activity of PKCeta(h) at 1.0 µM in the Eurofins Kinase panel; conditions: Compound concentration 1.0 uM
[25] = target: Serine/threonine-protein kinase PLK3 (Homo sapiens) (UniProt Q9H4B4); experiment: activity of Plk3(h) at 1.0 µM in the Eurofins Kinase panel; conditions: Compound concentration 1.0 uM
[26] = target: Serine/threonine-protein kinase N1 (Homo sapiens) (UniProt Q16512); experiment: activity of PRK1(h) at 1.0 µM in the Eurofins Kinase panel; conditions: Compound concentration 1.0 uM
[27] = target: Receptor-interacting serine/threonine-protein kinase 1 (Homo sapiens) (UniProt Q13546); experiment: activity of RIPK1(h) at 1.0 µM in the Eurofins Kinase panel; conditions: Compound concentration 1.0 uM
[28] = target: Serine/threonine-protein kinase 25 (Homo sapiens) (UniProt O00506); experiment: activity of STK25(h) at 1.0 µM in the Eurofins Kinase panel; conditions: Compound concentration 1.0 uM
[29] = target: Serine/threonine-protein kinase 32B (Homo sapiens) (UniProt Q9NY57); experiment: activity of STK32B(h) at 1.0 µM in the Eurofins Kinase panel; conditions: Compound concentration 1.0 uM
[30] = target: Serine/threonine-protein kinase 33 (Homo sapiens) (UniProt Q9BYT3); experiment: activity of STK33(h) at 1.0 µM in the Eurofins Kinase panel; conditions: Compound concentration 1.0 uM
[31] = target: STE20/SPS1-related proline-alanine-rich protein kinase (Homo sapiens) (UniProt Q9UEW8); experiment: activity of STK39(h) at 1.0 µM in the Eurofins Kinase panel; conditions: Compound concentration 1.0 uM
[32] = target: TGF-beta receptor type-1 (Homo sapiens) (UniProt P36897); experiment: activity of TGFBR1(h) at 1.0 µM in the Eurofins Kinase panel; conditions: Compound concentration 1.0 uM
[33] = target: Testis-specific serine/threonine-protein kinase 1 (Homo sapiens) (UniProt Q9BXA7); experiment: activity of TSSK1(h) at 1.0 µM in the Eurofins Kinase panel; conditions: Compound concentration 1.0 uM
[34] = target: Testis-specific serine/threonine-protein kinase 2 (Homo sapiens) (UniProt Q96PF2); experiment: activity of TSSK2(h) at 1.0 µM in the Eurofins Kinase panel; conditions: Compound concentration 1.0 uM
[35] = target: Tyrosine-protein kinase TXK (Homo sapiens) (UniProt P42681); experiment: activity of Txk(h) at 1.0 µM in the Eurofins Kinase panel; conditions: Compound concentration 1.0 uM
[36] = target: Serine/threonine-protein kinase ULK1 (Homo sapiens) (UniProt O75385); experiment: activity of ULK1(h) at 1.0 µM in the Eurofins Kinase panel; conditions: Compound concentration 1.0 uM
[37] = target: Serine/threonine-protein kinase WNK2 (Homo sapiens) (UniProt Q9Y3S1); experiment: activity of WNK2(h) at 1.0 µM in the Eurofins Kinase panel; conditions: Compound concentration 1.0 uM
[38] = target: Phosphorylase b kinase gamma catalytic chain, testis/liver isoform (Homo sapiens) (UniProt P15735); experiment: activity of PhKgamma2(h) at 1.0 µM in the Eurofins Kinase panel; conditions: Compound concentration 1.0 uM

Sequence of Interleukin-1 receptor-associated kinase 4 (Homo sapiens) (Q9NWZ3 whole entry): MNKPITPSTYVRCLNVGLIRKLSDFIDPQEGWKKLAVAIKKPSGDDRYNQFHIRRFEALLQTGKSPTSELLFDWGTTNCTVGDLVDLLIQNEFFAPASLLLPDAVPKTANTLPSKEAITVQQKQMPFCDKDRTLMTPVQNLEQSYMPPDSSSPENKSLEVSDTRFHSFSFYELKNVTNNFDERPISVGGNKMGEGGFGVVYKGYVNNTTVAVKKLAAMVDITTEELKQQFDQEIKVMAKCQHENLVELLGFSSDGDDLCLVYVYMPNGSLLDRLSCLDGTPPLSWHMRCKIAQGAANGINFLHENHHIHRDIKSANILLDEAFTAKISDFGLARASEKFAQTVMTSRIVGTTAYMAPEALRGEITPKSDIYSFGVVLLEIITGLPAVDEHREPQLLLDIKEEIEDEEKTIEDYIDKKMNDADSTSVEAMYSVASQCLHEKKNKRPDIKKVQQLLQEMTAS
Sequence of Tyrosine-protein kinase TXK (Homo sapiens) (P42681 whole entry): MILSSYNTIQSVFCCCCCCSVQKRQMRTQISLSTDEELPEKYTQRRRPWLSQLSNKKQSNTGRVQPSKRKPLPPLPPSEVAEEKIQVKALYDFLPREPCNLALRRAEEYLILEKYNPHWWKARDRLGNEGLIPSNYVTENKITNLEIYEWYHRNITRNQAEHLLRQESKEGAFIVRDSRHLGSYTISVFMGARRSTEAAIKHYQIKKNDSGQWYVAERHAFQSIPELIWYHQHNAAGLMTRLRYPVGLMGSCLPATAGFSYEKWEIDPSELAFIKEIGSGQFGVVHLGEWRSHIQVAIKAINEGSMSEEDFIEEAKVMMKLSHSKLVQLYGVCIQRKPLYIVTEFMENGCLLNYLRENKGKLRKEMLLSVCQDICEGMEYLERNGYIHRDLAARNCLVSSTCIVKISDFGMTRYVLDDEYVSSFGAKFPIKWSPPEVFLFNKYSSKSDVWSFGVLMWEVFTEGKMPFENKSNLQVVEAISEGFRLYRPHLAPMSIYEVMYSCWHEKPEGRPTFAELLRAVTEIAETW
Sequence of Dual specificity protein kinase CLK3 (Homo sapiens) (P49761 whole entry, looked up): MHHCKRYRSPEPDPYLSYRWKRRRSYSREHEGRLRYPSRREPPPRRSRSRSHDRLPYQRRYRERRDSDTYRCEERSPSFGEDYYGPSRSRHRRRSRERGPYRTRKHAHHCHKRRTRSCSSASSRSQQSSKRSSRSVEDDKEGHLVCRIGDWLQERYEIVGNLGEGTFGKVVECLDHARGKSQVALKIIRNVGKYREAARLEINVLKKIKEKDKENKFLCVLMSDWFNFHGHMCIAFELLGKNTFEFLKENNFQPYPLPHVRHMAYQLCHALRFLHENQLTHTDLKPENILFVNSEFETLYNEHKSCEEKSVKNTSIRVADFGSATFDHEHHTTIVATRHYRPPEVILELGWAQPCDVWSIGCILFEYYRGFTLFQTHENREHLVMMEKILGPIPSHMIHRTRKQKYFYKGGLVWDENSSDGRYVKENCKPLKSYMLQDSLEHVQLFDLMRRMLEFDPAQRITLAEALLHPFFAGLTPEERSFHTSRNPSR
Sequence of Platelet-derived growth factor receptor beta (Homo sapiens) (P09619 whole entry): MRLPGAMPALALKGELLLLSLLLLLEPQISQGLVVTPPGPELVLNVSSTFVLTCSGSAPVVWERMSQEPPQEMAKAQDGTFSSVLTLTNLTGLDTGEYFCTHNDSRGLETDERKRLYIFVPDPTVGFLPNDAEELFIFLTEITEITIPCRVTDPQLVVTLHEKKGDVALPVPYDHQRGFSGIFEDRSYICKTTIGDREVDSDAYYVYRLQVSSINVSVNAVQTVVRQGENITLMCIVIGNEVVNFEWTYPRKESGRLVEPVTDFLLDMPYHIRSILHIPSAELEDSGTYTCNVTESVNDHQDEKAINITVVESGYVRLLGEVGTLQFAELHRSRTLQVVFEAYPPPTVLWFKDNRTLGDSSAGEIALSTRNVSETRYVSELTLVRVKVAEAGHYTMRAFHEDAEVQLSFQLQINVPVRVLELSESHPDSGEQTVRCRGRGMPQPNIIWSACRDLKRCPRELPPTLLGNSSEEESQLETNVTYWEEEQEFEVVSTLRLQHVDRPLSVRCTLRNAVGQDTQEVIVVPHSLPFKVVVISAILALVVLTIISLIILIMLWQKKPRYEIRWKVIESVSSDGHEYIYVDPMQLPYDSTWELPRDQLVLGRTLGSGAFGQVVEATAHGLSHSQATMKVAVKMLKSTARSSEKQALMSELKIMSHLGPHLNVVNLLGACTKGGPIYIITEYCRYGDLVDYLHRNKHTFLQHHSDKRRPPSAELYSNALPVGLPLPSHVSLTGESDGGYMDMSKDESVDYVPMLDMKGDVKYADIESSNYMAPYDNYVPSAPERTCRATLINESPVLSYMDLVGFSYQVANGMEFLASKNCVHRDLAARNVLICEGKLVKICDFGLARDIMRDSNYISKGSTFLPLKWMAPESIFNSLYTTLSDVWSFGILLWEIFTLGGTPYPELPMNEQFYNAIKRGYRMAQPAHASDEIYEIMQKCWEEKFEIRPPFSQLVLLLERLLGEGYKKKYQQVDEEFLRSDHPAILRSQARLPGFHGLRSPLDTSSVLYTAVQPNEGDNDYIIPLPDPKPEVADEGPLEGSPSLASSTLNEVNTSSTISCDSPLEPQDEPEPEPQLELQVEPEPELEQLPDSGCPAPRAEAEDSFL
Sequence of Testis-specific serine/threonine-protein kinase 1 (Homo sapiens) (Q9BXA7 whole entry): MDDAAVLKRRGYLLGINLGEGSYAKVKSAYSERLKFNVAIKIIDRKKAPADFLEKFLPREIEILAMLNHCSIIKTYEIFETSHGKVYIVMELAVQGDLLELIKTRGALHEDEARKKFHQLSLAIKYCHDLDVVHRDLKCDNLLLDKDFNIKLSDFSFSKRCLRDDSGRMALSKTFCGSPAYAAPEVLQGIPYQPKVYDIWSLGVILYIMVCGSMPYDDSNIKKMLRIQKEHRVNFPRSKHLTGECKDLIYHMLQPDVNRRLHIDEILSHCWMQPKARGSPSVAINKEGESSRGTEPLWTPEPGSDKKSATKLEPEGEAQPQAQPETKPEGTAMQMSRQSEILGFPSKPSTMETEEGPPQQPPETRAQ
Sequence of Serine/threonine-protein kinase 26 (Homo sapiens) (Q9P289 2-416 limits assumed): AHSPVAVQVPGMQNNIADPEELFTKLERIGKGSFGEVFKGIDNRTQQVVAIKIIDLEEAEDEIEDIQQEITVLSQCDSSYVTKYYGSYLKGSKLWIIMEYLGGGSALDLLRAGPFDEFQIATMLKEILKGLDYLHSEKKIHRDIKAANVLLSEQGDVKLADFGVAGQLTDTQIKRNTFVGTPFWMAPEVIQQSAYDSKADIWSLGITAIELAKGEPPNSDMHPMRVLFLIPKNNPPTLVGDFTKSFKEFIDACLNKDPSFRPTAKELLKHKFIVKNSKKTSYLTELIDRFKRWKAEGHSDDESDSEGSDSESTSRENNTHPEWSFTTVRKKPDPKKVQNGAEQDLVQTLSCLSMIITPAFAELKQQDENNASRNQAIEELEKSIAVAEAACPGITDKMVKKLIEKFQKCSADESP
Sequence of Receptor-interacting serine/threonine-protein kinase 1 (Homo sapiens) (Q13546 whole entry): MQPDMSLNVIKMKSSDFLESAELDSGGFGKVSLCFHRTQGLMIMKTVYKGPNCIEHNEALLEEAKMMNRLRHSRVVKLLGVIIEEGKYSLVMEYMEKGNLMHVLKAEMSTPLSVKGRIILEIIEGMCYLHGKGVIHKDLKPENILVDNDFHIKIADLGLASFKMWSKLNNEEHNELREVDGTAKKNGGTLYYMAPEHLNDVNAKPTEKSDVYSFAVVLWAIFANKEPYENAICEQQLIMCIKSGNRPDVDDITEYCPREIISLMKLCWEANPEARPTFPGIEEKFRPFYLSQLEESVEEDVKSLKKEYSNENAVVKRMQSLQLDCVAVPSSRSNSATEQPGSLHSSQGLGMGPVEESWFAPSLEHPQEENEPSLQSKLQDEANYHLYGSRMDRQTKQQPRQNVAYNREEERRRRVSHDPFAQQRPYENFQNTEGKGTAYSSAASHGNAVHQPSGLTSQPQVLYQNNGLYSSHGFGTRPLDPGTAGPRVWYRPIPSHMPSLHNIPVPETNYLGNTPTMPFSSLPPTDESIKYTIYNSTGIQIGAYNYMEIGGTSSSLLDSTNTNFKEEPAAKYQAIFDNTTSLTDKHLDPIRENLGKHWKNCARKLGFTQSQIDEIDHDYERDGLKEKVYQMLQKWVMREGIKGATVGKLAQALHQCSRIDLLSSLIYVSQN
Sequence of Serine/threonine-protein kinase 4 (Homo sapiens) (Q13043 whole entry): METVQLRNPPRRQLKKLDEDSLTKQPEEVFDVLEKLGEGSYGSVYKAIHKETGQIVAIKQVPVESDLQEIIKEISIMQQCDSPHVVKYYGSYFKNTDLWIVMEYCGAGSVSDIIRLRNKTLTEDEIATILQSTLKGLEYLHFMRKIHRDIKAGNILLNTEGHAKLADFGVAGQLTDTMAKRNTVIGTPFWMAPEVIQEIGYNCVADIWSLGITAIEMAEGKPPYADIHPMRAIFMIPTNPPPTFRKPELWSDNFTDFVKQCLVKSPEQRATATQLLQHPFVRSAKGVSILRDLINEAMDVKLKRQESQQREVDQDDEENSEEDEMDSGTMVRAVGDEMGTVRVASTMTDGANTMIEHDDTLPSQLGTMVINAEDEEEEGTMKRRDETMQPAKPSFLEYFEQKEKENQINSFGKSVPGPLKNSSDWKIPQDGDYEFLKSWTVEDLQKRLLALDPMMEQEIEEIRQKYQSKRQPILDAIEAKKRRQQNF
Sequence of Serine/threonine-protein kinase 38 (Homo sapiens) (Q15208 2-465 limits assumed): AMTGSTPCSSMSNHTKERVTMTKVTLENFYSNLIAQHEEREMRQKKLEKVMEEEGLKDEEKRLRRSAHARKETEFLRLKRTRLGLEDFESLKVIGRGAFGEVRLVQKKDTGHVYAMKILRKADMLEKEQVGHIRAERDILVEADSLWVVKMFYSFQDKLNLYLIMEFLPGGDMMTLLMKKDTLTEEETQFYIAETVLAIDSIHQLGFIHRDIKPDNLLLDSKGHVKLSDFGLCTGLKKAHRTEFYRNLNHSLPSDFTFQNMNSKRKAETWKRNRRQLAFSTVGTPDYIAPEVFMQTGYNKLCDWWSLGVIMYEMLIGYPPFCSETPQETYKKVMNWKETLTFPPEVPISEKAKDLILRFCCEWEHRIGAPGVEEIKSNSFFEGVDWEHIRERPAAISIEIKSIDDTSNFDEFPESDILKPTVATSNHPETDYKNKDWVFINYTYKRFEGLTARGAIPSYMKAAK

## Cc1cc2c(-c3ccc(NC(=O)[C@H](N)CC(C)(C)C)cc3C)ccnc2[nH]1
[1]
  Kd: 9.5 nM (active)
[2]
  activity: 120%
[3]
  activity: 91%
[4]
  activity: 83%
[5]
  activity: 94%
[6]
  activity: 74%
[7]
  activity: 95%
[8]
  activity: 112%
[9]
  activity: 107%
[10]
  activity: 92%
[11]
  activity: 93%
[12]
  activity: 80%
[13]
  activity: 93%
[14]
  activity: 111%
[15]
  activity: 90%
[16]
  activity: 78%
[17]
  activity: 92%
[18]
  activity: 76%
[19]
  activity: 106%
[20]
  activity: 100%
[21]
  activity: 95%
[22]
  activity: 105%
[23]
  activity: 121%
[24]
  activity: 118%
[25]
  activity: 100%
[26]
  activity: 91%
[27]
  activity: 84%
[28]
  activity: 92%
[29]
  activity: 115%
[30]
  activity: 98%
[31]
  activity: 102%
[32]
  activity: 103%
[33]
  activity: 116%
[34]
  activity: 113%
[35]
  activity: 110%
[36]
  activity: 95%
[37]
  activity: 94%
[38]
  activity: 98%
